Values belong to the compound of their own block, whether it stands above or below them.
Key:
Homo sapiens = organism: Homo sapiens; test: Inhibition of glutathione S-transferase (unknown origin) using CDNB as substrate at 50 uM by spectrophotometric analysis relative to control
[1] = biological target: T1, Glutathione S-transferase Mu 2 (Homo sapiens, UniProt P28161); test: Inhibition of human GSTM2 by spectrophotometric analysis
T1 sequence (P28161 whole entry): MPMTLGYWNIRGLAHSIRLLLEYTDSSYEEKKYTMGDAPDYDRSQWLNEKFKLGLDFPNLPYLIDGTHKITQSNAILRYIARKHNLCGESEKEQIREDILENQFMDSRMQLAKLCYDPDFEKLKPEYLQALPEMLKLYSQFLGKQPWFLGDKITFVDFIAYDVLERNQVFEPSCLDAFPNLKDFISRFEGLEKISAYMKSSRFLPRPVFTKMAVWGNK

[2] = biological target: T2, Glutathione-S-transferase (Schistosoma japonicum, UniProt Q26513); test: Inhibition of Schistosoma japonicum GST by spectrophotometric analysis
T2 sequence (Q26513 whole entry): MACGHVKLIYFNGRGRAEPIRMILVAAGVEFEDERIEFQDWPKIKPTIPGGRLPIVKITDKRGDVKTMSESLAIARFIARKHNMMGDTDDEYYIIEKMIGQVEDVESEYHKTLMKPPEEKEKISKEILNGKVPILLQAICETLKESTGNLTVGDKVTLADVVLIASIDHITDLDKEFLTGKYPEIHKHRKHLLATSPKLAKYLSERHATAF

inhibition (Homo sapiens): 45.8%
Compound: O=c1c2cc(-c3ccccc3-c3nn[nH]n3)ccc2nc(-c2cccc(Cl)c2)n1Cc1ccc(Cl)cc1

inhibition (Homo sapiens): 20.3%
Compound: O=c1c2cc(-c3ccccc3-c3nn[nH]n3)ccc2ncn1Cc1ccc(Cl)cc1

inhibition (Homo sapiens): 12.9%
Compound: CS(=O)(=O)c1ccccc1-c1ccc2nc(-c3ccc(Cl)s3)n(Cc3ccc(Cl)cc3)c(=O)c2c1

inhibition (Homo sapiens): 78.7%
IC50 [1]: > 20 µM
IC50 [2]: 16.6 µM
Compound: O=C(O)c1ccccc1-c1ccc2nc(-c3ccc(Cl)s3)n(Cc3ccc(Cl)cc3)c(=O)c2c1

inhibition (Homo sapiens): 90.8%
Compound: O=c1c2cc(-c3ccccc3-c3nn[nH]n3)ccc2nc(-c2ccc(Cl)s2)n1CCc1ccc(Cl)cc1

inhibition (Homo sapiens): 98.8%
IC50 [1]: 2.02 µM
IC50 [2]: 1.55 µM
Compound: O=C(O)C(Cc1ccc(Cl)cc1)Cn1c(-c2ccc(Cl)s2)nc2ccc(-c3ccccc3-c3nn[nH]n3)cc2c1=O (stereo not drawn)

inhibition (Homo sapiens): 92.5%
IC50 [1]: 4.03 µM
IC50 [2]: 5.46 µM
Compound: O=c1c2cc(-c3ccccc3-c3nn[nH]n3)ccc2nc(-c2ccc(Cl)s2)n1Cc1ccc(Cl)cc1

inhibition (Homo sapiens): 89%
IC50 [1]: 6.15 µM
IC50 [2]: 4.26 µM
Compound: O=c1c2cc(-c3ccccc3-c3nn[nH]n3)ccc2nc(-c2cccs2)n1Cc1ccc(Cl)cc1

inhibition (Homo sapiens): 83.6%
IC50 [1]: 3.38 µM
IC50 [2]: 8.86 µM
Compound: O=c1c2cc(-c3ccccc3-c3nn[nH]n3)ccc2nc(-c2ccc(Cl)s2)n1Cc1ccccc1

inhibition (Homo sapiens): 65.3%
Compound: Cn1nccc1-c1nc2ccc(-c3ccccc3-c3nn[nH]n3)cc2c(=O)n1Cc1ccc(Cl)cc1

The next lines start with the compound.

Compound: O=C(O)CCCn1c(-c2ccc(Cl)s2)nc2ccc(-c3ccccc3-c3nn[nH]n3)cc2c1=O
inhibition (Homo sapiens): 76.6%

Compound: COC(=O)c1ccccc1-c1ccc2nc(-c3ccc(Cl)s3)n(Cc3ccc(Cl)cc3)c(=O)c2c1
inhibition (Homo sapiens): 24.8%

Compound: O=C(O)CCn1c(-c2ccc(Cl)s2)nc2ccc(-c3ccccc3-c3nn[nH]n3)cc2c1=O
inhibition (Homo sapiens): 87.3%
IC50 [1]: 2.4 µM
IC50 [2]: 9.47 µM

Compound: O=C(O)c1cccc(-c2ccc3nc(-c4ccc(Cl)s4)n(Cc4ccc(Cl)cc4)c(=O)c3c2)c1
inhibition (Homo sapiens): 55.6%

Compound: COc1cc(/C=C/C(=O)CC(=O)/C=C/c2ccc(O)c(OC)c2)ccc1O [CURCUMIN]
IC50 [1]: 1.81 µM

Compound: CCOC(=O)CCn1c(-c2ccc(Cl)s2)nc2ccc(-c3ccccc3-c3nn[nH]n3)cc2c1=O
inhibition (Homo sapiens): 87.5%

Compound: NC(=O)c1cccc(-c2ccc3nc(-c4ccc(Cl)s4)n(Cc4ccc(Cl)cc4)c(=O)c3c2)c1
inhibition (Homo sapiens): 24.6%

Compound: O=C(O)c1cc(-c2ccc3nc(-c4ccc(Cl)s4)n(Cc4ccc(Cl)cc4)c(=O)c3c2)ccc1F
inhibition (Homo sapiens): 54.4%

Compound: C=C(CC)C(=O)c1ccc(OCC(=O)O)c(Cl)c1Cl [ETHACRYNIC ACID]
IC50 [1]: > 20 µM
IC50 [2]: 1.84 µM

Compound: O=c1c2cc(Br)ccc2nc(-c2ccc(Cl)s2)n1Cc1ccc(Cl)cc1
inhibition (Homo sapiens): 20.2%
